Article PMC6155021, “Ancient and modern anticonvulsants act synergistically in a KCNQ potassium channel binding pocket” (Nature Communications, 2018)

Experiments:
W236L-Q2/Q3 channels = W236L-Q2/Q3 channels (Homo sapiens, UniProt O43525+O43526, W236L); experiment: Two-electrode voltage-clamp of W236L-Q2/Q3 mutant channels in Xenopus oocytes; format: cell-based; settings: for Non-normalized tail current V0.5 / Normalized tail current V0.5 / Slope: W236L-Q2/Q3
Description: (§1) cRNA transcripts encoding human KCNA1, KCNQ1, KCNQ2, KCNQ3, KCNQ4, or KCNQ5 were generated by in vitro transcription using the T7 polymerase message machine kit (Thermo Fisher Scientific), after vector linearization, from cDNA sub-cloned into plasmids incorporating X. laevis β-globin 5′ and 3′ UTRs flanking the coding region to enhance translation and cRNA stability. cRNA was quantified by spectrophotometry. Mutant cDNAs were generated by site-directed mutagenesis using a QuikChange kit according to manufacturer’s protocol (Stratagene, San Diego, CA) and corresponding cRNAs prepared as above. Defolliculated stage V and VI X. laevis oocytes (Ecocyte Bioscience, Austin, TX) were injected with Kv channel α subunit cRNAs (10 ng total per oocyte). Oocytes were incubated at 16 °C in Barth’s saline solution (Ecocyte) containing penicillin and streptomycin, with daily washing, for 3–5 days prior to two-electrode voltage-clamp (TEVC) recording.
(§2) Oocytes were placed in a small-volume oocyte bath (Warner) and viewed with a dissection microscope. Chemicals were sourced from Sigma. Bath solution was (in mM): 96 NaCl, 4 KCl, 1 MgCl2, 1 CaCl2, 10 HEPES (pH 7.6). […] MTX (DMSO), sorbic acid (ethanol), and glutaconic acid (molecular grade H2O) were stored at −20 °C as 1 M stocks. Oleamide was stored as a 1 mM stock in ethanol at 4 °C. Palmitic acid was conjugated with bovine serum albumin as a 1 mM stock and stored at −20 °C. All compounds were diluted to working concentrations each experimental day. All compounds were introduced to the recording bath via gravity perfusion at a constant flow of 1 ml/min for 3 min prior to recording. Pipettes were of 1–2 MΩ resistance when filled with 3 M KCl. Currents were recorded in response to pulses between −80 and +40 mV at 20 mV intervals, or a single pulse to +40 mV, from a holding potential of −80 mV, to yield current–voltage relationships, current magnitude, and for quantifying activation rate. TEVC data analysis was performed with Clampfit10.2 (Molecular Devices) and Graphpad Prism software (GraphPad, San Diego, CA, USA); values are stated as mean ± SEM. Normalized tail currents were plotted versus prepulse voltage and fitted with a single Boltzmann function:1 g=A1-A2/1+expV12-Vy+A2, where g is the normalized tail conductance, A1 is the initial value at −∞, A2 is the final value at +∞, V1/2 is the half-maximal voltage of activation, and Vs the slope factor. Activation and deactivation kinetics were fitted with single-exponential functions.

KCNQ2 = KCNQ2 (Homo sapiens, UniProt O43526); experiment: Two-electrode voltage-clamp of homomeric KCNQ2 in Xenopus oocytes; format: cell-based
Description: as §1, §2

[1] = rats fed Mallotus philippensis extract; cited from earlier work
KCNA1 = KCNA1 (Homo sapiens, UniProt Q09470); experiment: Two-electrode voltage-clamp of KCNA1 in Xenopus oocytes; format: cell-based; settings: MTX concentration not given; IVA 500 µM
Description: as §1
as §2, with “TEVC data analysis was performed with Clampfit10.2 (Molecular Devices) and Graphpad Prism software (GraphPad, San Diego, CA, USA); values are stated as mean ± SEM. Normalized tail currents were plotted versus prepulse voltage and fitted with a single Boltzmann function:1 g=A1-A2/1+expV12-Vy+A2, where g is the normalized tail conductance, A1 is the initial value at −∞, A2 is the final value at +∞, V1/2 is the half-maximal voltage of activation, and Vs the slope factor. Activation and deactivation kinetics were fitted with single-exponential functions.” left out

[2] = biological target: KCNQ2-W236L/KCNQ3-W265L channels (Homo sapiens, UniProt O43525+O43526, W236L/W265L); experiment: Two-electrode voltage-clamp of W236L-Q2/W265L-Q3 mutant channels in Xenopus oocytes; format: cell-based; settings: for Non-normalized tail current V0.5 / Normalized tail current V0.5 / Slope: W236L-Q2/W265L-Q3
Description: as §1, §2

[3] = test system: water-injected control oocytes; experiment: Two-electrode voltage-clamp of water-injected control oocytes; format: cell-based, Xenopus laevis
Description: Chemicals were sourced from Sigma.

Q2/W265L-Q3 channels = Q2/W265L-Q3 channels (Homo sapiens, UniProt O43525+O43526, W265L); experiment: Two-electrode voltage-clamp of Q2/W265L-Q3 mutant channels in Xenopus oocytes; format: cell-based; settings: for Non-normalized tail current V0.5 / Normalized tail current V0.5 / Slope: Q2/W265L-Q3
Description: as §1, §2

Chain of W236L-Q2/Q3 channels (O43525 whole entry): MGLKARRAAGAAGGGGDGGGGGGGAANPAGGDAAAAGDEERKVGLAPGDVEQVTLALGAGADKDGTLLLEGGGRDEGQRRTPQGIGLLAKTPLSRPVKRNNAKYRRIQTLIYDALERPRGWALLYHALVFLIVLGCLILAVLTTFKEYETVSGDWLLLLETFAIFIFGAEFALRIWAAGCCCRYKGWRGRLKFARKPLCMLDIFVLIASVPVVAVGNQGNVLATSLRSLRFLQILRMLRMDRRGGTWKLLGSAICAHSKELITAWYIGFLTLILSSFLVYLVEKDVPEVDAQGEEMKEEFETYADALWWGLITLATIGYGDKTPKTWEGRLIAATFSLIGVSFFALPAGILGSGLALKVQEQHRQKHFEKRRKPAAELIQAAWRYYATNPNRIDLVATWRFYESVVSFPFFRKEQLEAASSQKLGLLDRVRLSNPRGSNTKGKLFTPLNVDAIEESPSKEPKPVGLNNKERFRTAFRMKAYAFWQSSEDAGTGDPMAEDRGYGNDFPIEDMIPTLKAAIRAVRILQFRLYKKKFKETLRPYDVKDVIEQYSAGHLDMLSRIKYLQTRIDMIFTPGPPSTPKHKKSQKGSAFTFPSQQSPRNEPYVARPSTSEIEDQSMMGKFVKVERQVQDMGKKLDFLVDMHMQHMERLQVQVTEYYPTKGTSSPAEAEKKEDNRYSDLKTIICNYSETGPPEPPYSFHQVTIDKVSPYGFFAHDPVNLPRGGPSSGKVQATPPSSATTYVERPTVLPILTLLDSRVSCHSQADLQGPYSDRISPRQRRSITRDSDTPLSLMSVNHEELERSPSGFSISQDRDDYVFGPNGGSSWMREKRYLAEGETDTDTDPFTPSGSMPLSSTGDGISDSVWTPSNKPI
Chain of W236L-Q2/Q3 channels (O43526 whole entry W236L): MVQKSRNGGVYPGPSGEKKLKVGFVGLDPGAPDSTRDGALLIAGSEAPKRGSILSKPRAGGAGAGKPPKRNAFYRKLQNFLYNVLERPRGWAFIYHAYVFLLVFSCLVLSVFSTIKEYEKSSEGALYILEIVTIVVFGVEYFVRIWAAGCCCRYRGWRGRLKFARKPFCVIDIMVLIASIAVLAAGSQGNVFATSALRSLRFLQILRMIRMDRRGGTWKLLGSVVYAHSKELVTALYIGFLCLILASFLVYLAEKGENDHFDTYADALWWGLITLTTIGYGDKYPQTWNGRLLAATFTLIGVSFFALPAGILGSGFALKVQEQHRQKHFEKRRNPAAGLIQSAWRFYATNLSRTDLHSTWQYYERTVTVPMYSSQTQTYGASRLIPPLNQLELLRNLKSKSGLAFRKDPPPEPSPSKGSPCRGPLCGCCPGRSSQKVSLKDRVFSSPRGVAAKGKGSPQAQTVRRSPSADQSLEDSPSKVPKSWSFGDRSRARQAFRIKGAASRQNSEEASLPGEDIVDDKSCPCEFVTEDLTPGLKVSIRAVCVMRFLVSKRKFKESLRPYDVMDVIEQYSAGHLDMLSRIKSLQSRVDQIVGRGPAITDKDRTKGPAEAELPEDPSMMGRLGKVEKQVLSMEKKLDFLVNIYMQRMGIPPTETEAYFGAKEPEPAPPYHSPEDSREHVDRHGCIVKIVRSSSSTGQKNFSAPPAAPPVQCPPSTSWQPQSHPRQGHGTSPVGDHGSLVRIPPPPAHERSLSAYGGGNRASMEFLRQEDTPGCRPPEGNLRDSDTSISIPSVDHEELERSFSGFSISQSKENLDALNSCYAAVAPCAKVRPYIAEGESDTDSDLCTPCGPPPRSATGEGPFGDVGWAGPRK
Chain of Q2/W265L-Q3 channels (O43526 whole entry): as the sequence (O43526 whole entry W236L) above, with L236W counted along it
Chain of Q2/W265L-Q3 channels (O43525 whole entry W265L): as the sequence (O43525 whole entry) above, with W265L counted along it
Chain of KCNA1 (Q09470 whole entry): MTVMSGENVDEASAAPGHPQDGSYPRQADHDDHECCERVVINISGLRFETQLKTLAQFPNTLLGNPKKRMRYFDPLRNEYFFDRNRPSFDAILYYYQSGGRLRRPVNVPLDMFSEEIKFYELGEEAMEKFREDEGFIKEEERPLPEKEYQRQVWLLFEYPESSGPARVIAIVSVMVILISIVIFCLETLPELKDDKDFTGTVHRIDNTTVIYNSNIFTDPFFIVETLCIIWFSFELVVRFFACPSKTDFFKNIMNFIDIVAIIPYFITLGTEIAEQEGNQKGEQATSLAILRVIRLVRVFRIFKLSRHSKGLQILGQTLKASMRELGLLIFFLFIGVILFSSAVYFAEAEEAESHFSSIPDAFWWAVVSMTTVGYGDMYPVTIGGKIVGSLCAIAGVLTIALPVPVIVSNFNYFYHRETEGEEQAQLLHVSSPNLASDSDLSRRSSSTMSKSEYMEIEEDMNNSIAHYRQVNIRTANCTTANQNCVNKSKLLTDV

CC(=O)c1c(O)c(C)c(O)c(Cc2c(O)c3c(c(C(=O)/C=C/c4ccccc4)c2O)OC(C)(C)C=C3)c1O [MTX, mallotoxin]
EC50 (W236L-Q2/Q3 channels; EC50, W236L-Q2/Q3, calculated from dose responses): 27 ± 0.6 µM
EC50 (W236L-Q2/Q3 channels; V0.5 EC50, W236L-Q2/Q3, calculated from shift in V0.5): 37.3 ± 0.2 µM
Non-normalized tail current V0.5 (W236L-Q2/Q3 channels; 1 µM): -55.7 ± 1.9 mV
Normalized tail current V0.5 (W236L-Q2/Q3 channels; 1 µM): -57.1 ± 0.9 mV
Slope (W236L-Q2/Q3 channels; 1 µM): 6.0 ± 0.7 mV
Non-normalized tail current V0.5 (W236L-Q2/Q3 channels; 3 µM): -55.4 ± 2.1 mV
Normalized tail current V0.5 (W236L-Q2/Q3 channels; 3 µM): -57.8 ± 1.3 mV
Slope (W236L-Q2/Q3 channels; 3 µM): 3.9 ± 2.2 mV
Non-normalized tail current V0.5 (W236L-Q2/Q3 channels; 10 µM): -57.3 ± 2.7 mV
Normalized tail current V0.5 (W236L-Q2/Q3 channels; 10 µM): -58.1 ± 0.9 mV
Slope (W236L-Q2/Q3 channels; 10 µM): 6.2 ± 0.7 mV
Non-normalized tail current V0.5 (W236L-Q2/Q3 channels; 30 µM): -61.9 ± 3.9 mV
Normalized tail current V0.5 (W236L-Q2/Q3 channels; 30 µM): -62.4 ± 1.3 mV
Slope (W236L-Q2/Q3 channels; 30 µM): 6.6 ± 0.9 mV
Non-normalized tail current V0.5 (W236L-Q2/Q3 channels; 100 µM): -67.9 ± 7.7 mV
Normalized tail current V0.5 (W236L-Q2/Q3 channels; 100 µM): -71.4 ± 4.5 mV
Slope (W236L-Q2/Q3 channels; 100 µM): 6.8 ± 1.2 mV
EC50 (KCNQ2): 6.4 µM
Non-normalized tail current V0.5 (KCNQ2; KCNQ2, 0.1 µM): -50.0 ± 0.4 mV
Normalized tail current V0.5 (KCNQ2; KCNQ2, 0.1 µM): -50.0 ± 0.35 mV
Slope (KCNQ2; KCNQ2, 0.1 µM): 7.4 ± 0.23 mV
τ act, -40 mV (KCNQ2; KCNQ2, 0.1 µM): 538 ± 20 ms
τ deact, -80 mV (KCNQ2; KCNQ2, 0.1 µM): 294 ± 10 ms
Non-normalized tail current V0.5 (KCNQ2; KCNQ2, 1 µM): -51.7 ± 2.0 mV
Normalized tail current V0.5 (KCNQ2; KCNQ2, 1 µM): -51.4 ± 0.46 mV
Slope (KCNQ2; KCNQ2, 1 µM): 7.4 ± 0.31 mV
τ act, -40 mV (KCNQ2; KCNQ2, 1 µM): 490 ± 23 ms
τ deact, -80 mV (KCNQ2; KCNQ2, 1 µM): 271 ± 11 ms
Non-normalized tail current V0.5 (KCNQ2; KCNQ2, 3 µM): -52.1 ± 2.5 mV
Normalized tail current V0.5 (KCNQ2; KCNQ2, 3 µM): -54.9 ± 0.41 mV
Slope (KCNQ2; KCNQ2, 3 µM): 7.3 ± 0.33 mV
τ act, -40 mV (KCNQ2; KCNQ2, 3 µM): 417 ± 25 ms
τ deact, -80 mV (KCNQ2; KCNQ2, 3 µM): 237 ± 12 ms
Non-normalized tail current V0.5 (KCNQ2; KCNQ2, 10 µM): -61.7 ± 2.7 mV
Normalized tail current V0.5 (KCNQ2; KCNQ2, 10 µM): -61.2 ± 0.87 mV
Slope (KCNQ2; KCNQ2, 10 µM): 7.0 ± 1.0 mV
τ act, -40 mV (KCNQ2; KCNQ2, 10 µM): 341 ± 22 ms
τ deact, -80 mV (KCNQ2; KCNQ2, 10 µM): 199 ± 11 ms
Non-normalized tail current V0.5 (KCNQ2; KCNQ2, 30 µM): -68.7 ± 2.7 mV
Normalized tail current V0.5 (KCNQ2; KCNQ2, 30 µM): -68.5 ± 1.5 mV
Slope (KCNQ2; KCNQ2, 30 µM): 7.4 ± 0.6 mV
shift in midpoint voltage of activation (KCNQ2; KCNQ2, 30 µM): −24 mV
τ act, -40 mV (KCNQ2; KCNQ2, 30 µM): 301 ± 19 ms
τ deact, -80 mV (KCNQ2; KCNQ2, 30 µM): 173 ± 10 ms
Non-normalized tail current V0.5 (KCNQ2; KCNQ2, 100 µM): -66.2 ± 2.7 mV
Normalized tail current V0.5 (KCNQ2; KCNQ2, 100 µM): -66.0 ± 2.7 mV
Slope (KCNQ2; KCNQ2, 100 µM): 8.1 ± 1.2 mV
τ act, -40 mV (KCNQ2; KCNQ2, 100 µM): 353 ± 22 ms
τ deact, -80 mV (KCNQ2; KCNQ2, 100 µM): 190 ± 8 ms
Oral bioavailability [1]: > 20%
plasma concentrations [1]: exceeded 2 µg/ml
effect on KCNA1 currents (KCNA1): no effect
EC50 [2]: 14.9 ± 0.1 µM
Non-normalized tail current V0.5 ([2]; 1 µM): -62.5 ± 3.4 mV
Normalized tail current V0.5 ([2]; 1 µM): -62.8 ± 0.4 mV
Slope ([2]; 1 µM): 5.9 ± 0.5 mV
Non-normalized tail current V0.5 ([2]; 3 µM): -63.6 ± 3.7 mV
Normalized tail current V0.5 ([2]; 3 µM): -64.1 ± 0.9 mV
Slope ([2]; 3 µM): 6.3 ± 0.9 mV
Non-normalized tail current V0.5 ([2]; 10 µM): -66.3 ± 3.9 mV
Normalized tail current V0.5 ([2]; 10 µM): -67.3 ± 0.9 mV
Slope ([2]; 10 µM): 6.4 ± 0.6 mV
Non-normalized tail current V0.5 ([2]; 30 µM): -70.6 ± 3.7 mV
Normalized tail current V0.5 ([2]; 30 µM): -71.9 ± 0.9 mV
Slope ([2]; 30 µM): 6.3 ± 0.5 mV
Non-normalized tail current V0.5 ([2]; 100 µM): -74.4 ± 3.9 mV
Normalized tail current V0.5 ([2]; 100 µM): -77.3 ± 1.4 mV
Slope ([2]; 100 µM): 5.9 ± 1.8 mV
effect on endogenous current and EM of water-injected control oocytes [3]: no effect
EC50 (Q2/W265L-Q3 channels; EC50, Q2/W265L-Q3, calculated from dose responses): 70 ± 0.6 µM
Non-normalized tail current V0.5 (Q2/W265L-Q3 channels; 1 µM): -51.3 ± 11.3 mV
Normalized tail current V0.5 (Q2/W265L-Q3 channels; 1 µM): -45.7 ± 2.9 mV
Slope (Q2/W265L-Q3 channels; 1 µM): 7.9 ± 1.7 mV
Non-normalized tail current V0.5 (Q2/W265L-Q3 channels; 3 µM): -52.7 ± 10.5 mV
Normalized tail current V0.5 (Q2/W265L-Q3 channels; 3 µM): -49.2 ± 2.6 mV
Slope (Q2/W265L-Q3 channels; 3 µM): 7.9 ± 1.8 mV
Non-normalized tail current V0.5 (Q2/W265L-Q3 channels; 10 µM): -54.0 ± 9.7 mV
Normalized tail current V0.5 (Q2/W265L-Q3 channels; 10 µM): -51.8 ± 2.4 mV
Slope (Q2/W265L-Q3 channels; 10 µM): 7.6 ± 1.4 mV
Non-normalized tail current V0.5 (Q2/W265L-Q3 channels; 30 µM): -58.0 ± 8.3 mV
Normalized tail current V0.5 (Q2/W265L-Q3 channels; 30 µM): -56.3 ± 2.2 mV
Slope (Q2/W265L-Q3 channels; 30 µM): 7.4 ± 1.6 mV
Non-normalized tail current V0.5 (Q2/W265L-Q3 channels; 100 µM): -63.7 ± 11.2 mV
Normalized tail current V0.5 (Q2/W265L-Q3 channels; 100 µM): -61.8 ± 2.2 mV
Slope (Q2/W265L-Q3 channels; 100 µM): 6.6 ± 2.1 mV
EC50 (Q2/W265L-Q3 channels; V0.5 EC50, Q2/W265L-Q3, calculated from shift in V0.5): 13.7 ± 0.3 µM
